The numbers were not newly measured in US10434065B2, “Microfluidic liposome synthesis, purification and active drug loading” (University of Maryland, College Park, priority 2013, dated 2019), which cites them from elsewhere.

Where a name gives a salt, the structure may show the parent alone.

One may read the pKa as the pH at which an ionisable group is half protonated.

Turning to `CN(C)c1ccc2cc3ccc(N(C)C)cc3nc2c1` [AO, Acridine Orange hydrochloride], the pKa is recorded as 10.4.
